Data taken from patent US11331368B2, “Angiotensin receptor agonists and uses thereof” (Monash University, priority 2017, dated 2022).
Square brackets hold non-standard residues; d marks the D form. Primed or numbered codes have the meaning given here. Ends that are not written are not given here. * marks the point of attachment. Cholyl = C[C@H](CCC(=O)*)[C@H]1CC[C@H]2[C@@H]3[C@H](O)C[C@@H]4C[C@H](O)CC[C@]4(C)[C@H]3C[C@H](O)[C@]12C; βPhe = beta-form phenylalanine; βArg = beta-form arginine; βTyr = beta-form tyrosine; βPro = beta-form proline; βVal″ = beta-form valine

T1: human AT2R (Homo sapiens, UniProt P50052)
T1 construct: expressed in transfected cells
T1 sequence (P50052 1-363): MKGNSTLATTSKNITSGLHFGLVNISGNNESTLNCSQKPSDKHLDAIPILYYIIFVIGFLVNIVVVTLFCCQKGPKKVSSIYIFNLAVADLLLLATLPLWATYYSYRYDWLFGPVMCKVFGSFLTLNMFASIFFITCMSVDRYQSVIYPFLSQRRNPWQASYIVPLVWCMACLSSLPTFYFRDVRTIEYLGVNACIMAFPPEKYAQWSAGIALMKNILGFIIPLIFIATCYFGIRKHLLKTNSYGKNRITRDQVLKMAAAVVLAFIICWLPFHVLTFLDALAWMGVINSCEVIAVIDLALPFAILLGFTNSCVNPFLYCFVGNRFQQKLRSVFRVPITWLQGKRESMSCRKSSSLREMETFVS

T2: human AT1R (Homo sapiens, UniProt P30556)
T2 construct: expressed in transfected cells
T2 sequence (P30556 1-359): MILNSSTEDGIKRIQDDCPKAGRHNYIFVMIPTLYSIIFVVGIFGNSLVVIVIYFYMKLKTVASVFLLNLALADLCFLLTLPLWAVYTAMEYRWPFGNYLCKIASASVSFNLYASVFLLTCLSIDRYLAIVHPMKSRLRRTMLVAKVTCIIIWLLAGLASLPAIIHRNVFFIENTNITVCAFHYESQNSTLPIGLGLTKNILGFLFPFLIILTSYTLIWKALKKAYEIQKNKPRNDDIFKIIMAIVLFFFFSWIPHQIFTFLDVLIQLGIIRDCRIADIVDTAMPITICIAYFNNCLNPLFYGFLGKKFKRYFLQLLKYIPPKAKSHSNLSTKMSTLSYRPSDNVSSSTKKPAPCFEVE

T3: human Angiotensin II Receptor Type 2 (AT2R) (human, UniProt P50052 1-363)
T3 construct: whole, on cells; also endogenous on human cardiac fibroblasts (functional entries); also called AT2 receptor
T3 sequence (looked up): T1 sequence (P50052 1-363)

B1: Cholic Acid-βPro-Ang III (peptide)
peptide: Cholyl-RVYIH[βPro]F-OH
notes: synthetic peptide; also called Cholate-Arg-Val-Tyr-Ile-His-β-Pro-Phe
B2: βVal-Ala-8-Ang III (peptide)
peptide: R[βVal″]YIHPA-OH
notes: synthetic peptide; also called Arg-β-Val-Tyr-Ile-His-Pro-Ala
B3: βPhe-Ang III (peptide)
peptide: RVYIHP[βPhe]-OH
notes: synthetic peptide; also called Arg-Val-Tyr-Ile-His-Pro-β-Phe
B4: Nic-βPro-Ang III (peptide)
peptide: nicotinamido-RVYIH[βPro]F-OH
notes: synthetic peptide; also called Nicotinamido-Arg-Val-Tyr-Ile-His-β-Pro-Phe
B5: D-Arg-Ang III (peptide)
peptide: [dR]VYIHPF-OH
notes: synthetic peptide; also called D-Arg-Val-Tyr-Ile-His-Pro-Phe
B6: βTyr-Ang III (peptide)
peptide: RV[βTyr]IHPF-OH
notes: synthetic peptide; also called Arg-Val-β-Tyr-Ile-His-Pro-Phe
B7: βArg-Ala-8-Ang III (peptide)
peptide: [βArg]VYIHPA-OH
notes: synthetic peptide; also called β-Arg-Val-Tyr-Ile-His-Pro-Ala
B8: βTyr-Trp-8-Ang III (peptide)
peptide: RV[βTyr]IHPW-OH
notes: synthetic peptide; also called β-Tyr^4-Trp^8-Ang III; β-Tyro-Trp^8-Ang III
B9: NAc-βPro-Trp-8-Ang III (peptide)
peptide: Ac-RVYIH[βPro]W-OH
notes: synthetic peptide; also called N-Ac-β-Pro^7-Trp^8-Ang III; N-Ac-Pro^7-Trp^8-Ang III
B10: βArg-Ala-8-Ang II (peptide)
peptide: D[βArg]VYIHPA-OH
notes: synthetic peptide; also called Asp-β-Arg-Val-Tyr-Ile-His-Pro-Ala

Assays:
human AT2R = biological target: T1, human AT2R; experiment: Competition radioligand binding (125I-Sar1-Ile8-AngII) in AT2R-transfected HEK-293 cells; details: for Fold AT2R selectivity: AT2R over AT1R, Table 3
Procedure: (§3) This will lead to the generation of IC50 values that determine the relative ability of test compounds to interact with both Angiotensin receptors.
(§4) Cells were grown to approximately 80% confluence before being re-plated into 48 well plates at 1×10^5 cells/well and grown for 48 hours at 37° C. for a whole cell competition binding assay. [125I]-Sar1Ile8Ang II at 50,000 cpm, incubated for 45 minutes at 37° C., in the absence or presence of unlabeled ligands, prepared in binding buffer (DMEM, 0.1% BSA), were used in the competition assays at concentrations ranging from 1 μM to 10 μM. For each experiment, each ligand concentration was tested in duplicate or triplicate, and each experiment was repeated at least 3 separate times. […] The ability of each ligand to inhibit specific binding of [125I]-Sar1Ile8Ang II was measured on a gamma counter with all counts corrected for NSB.

human AT1R = biological target: T2, human AT1R; experiment: Competition radioligand binding (125I-Sar1-Ile8-AngII) in AT1R-transfected HEK-293 cells
Procedure: as §3, §4

[1] = test system: male FVB/N mice on high salt diet, heart; experiment: High salt (5%) diet intervention model, heart; assay type: in vivo, mouse; details: for MMP-13 protein expression in heart (Western blot) / macrophage infiltration/expression in heart (F4/80) / expression of P-IκBα (marker for NFκB activation) in heart: weeks 5-8, captopril 3 mg/kg/day; for MMP-13 protein expression in heart (Western blot) / macrophage infiltration/expression in heart (F4/80): peptide 75 pmol/kg/min s.c.; for MMP-13 protein expression in heart (Western blot) / macrophage infiltration/expression in heart (F4/80) / expression of P-IκBα (marker for NFκB activation) in heart / cardiac fibrosis (picrosirius red): Cand 2 mg/kg/day; for expression of P-IκBα (marker for NFκB activation) in heart: peptides 75 pmol/kg/min s.c.; for cardiac fibrosis (picrosirius red): weeks 5-8 of high salt diet, peptides 75 pmol/kg/min s.c. mini-pump, captopril 3 mg/kg/day in drinking water
Procedure: (§1) C) In the intervention (or reversal) model, male FVB/N mice were treated with selective AT2Rs agonists after the establishment of cardiovascular disease using a high salt diet, in order to reverse cardiovascular pathologies. In some experiments, the ACE inhibitor captopril (dose) or the ARB candesartan cilexetil (dose) were given for 4 weeks in drinking water. Organs examined included heart, kidney and liver and these were compared to either untreated mice or high salt-fed mice that were treated with saline.
A high-salt diet (5% salt) model is a clinically relevant and disease-reversal model which can replicate the high salt intake by humans which is currently a growing problem in the developed countries. High salt intake induces changes in the cardiovascular system and induces remodelling and fibrosis in the heart, kidney and liver.
(§2) Mice were placed on either a normal rodent diet (0.35% NaCl) which acted as control or a high salt diet (5% sodium in food chow) for 8 weeks. After 4 weeks, mice were also treated subcutaneously (via osmotic mini-pump) with either saline or an AT2R agonist (75 pmol/kg/min subcutaneously) for 4 weeks. Mice continued to be fed a high salt diet whilst receiving these treatments.
All mice which underwent surgery were anaesthetized with Isoflurane (Isorrane) (5% induction and 2.5% maintenance) and an incision made in the midscapular region through which osmotic minipumps (Alzet model 2004, Alza Corp) were inserted for subcutaneous drug administration. The incision area was sutured with 6/0 DY silk (Dynek Pty Ltd) and antibiotic powder applied (Cicatrin, Pfizer) followed by intramuscular injection of the analgesic Cartrophen (0.1 ml of a 1.5 mg/ml stock solution; Biopharm Australia). Systolic blood pressure (SBP) was measured using non-invasive tail-cuff plethysmography apparatus (MC4000 Blood Pressure Analysis System, Hatteras Instrument Inc) before drug treatment (week 0), and then fortnightly. At the end of the 8 week treatment period mice were weighed before being killed by overdose of isoflurane inhalation and cervical dislocation.
To measure collagen deposition, frozen sections of heart, kidney or aorta (all 5 μm thickness) were air dried for 10 minutes and were brought through 3 times xylene (2 minutes each), and 3 times absolute alcohol washes before being rinsed in tap H2O for 30 seconds. Staining with an optimal concentration of picrosirius red (in this instance 0.05% picrosirius red diluted in saturated picric acid) was performed and left for an hour. Sections were then rinsed in water and differentiated in 0.01M HCl for 2 minutes, followed by dehydration via 3 times absolute alcohol washes. Then, slides were brought through 3 times xylene washes before being cover slipped according to standard histological techniques using DPX as the mounting medium. Images were taken under ×20 magnification, using bright field (Olympus, BX51) and circularized polarized light microscopy (DM IRB, Leica) while percentage of positive interstitial collagen staining per total field of view was quantified using ImageJ 1.46 software (Java, NIH), and averaged out from a total of eight views as the final percentage collagen content in a particular animal.
Immunostaining was performed on 5 μm thick transverse frozen heart sections. These sections were air dried and fixed in ice-cold acetone for approximately 15 minutes before washing with 0.01M PBS buffer (3×10 minutes). Sections were then incubated with 10% goat serum in 0.01M PBS for 30 minutes to reduce non-specific binding. If the primary antibody is raised in goat, this pre-blocked medium is substituted with 5% BSA in PBS and Triton-X. Next, blocking buffers were removed and the primary antibody to respective markers were applied overnight at room temperature based on the following dilution and origin of the antibodies: α-SMA (1:500, Abcam), Vimentin (1:500, Santa Cruz), P-IκBα (1:200, Cell Signalling), F4/80 macrophage (1:100, Serotec). […]

[2] = test system: male FVB/N mice on high salt diet, liver; experiment: High salt (5%) diet intervention model, liver; assay type: in vivo, mouse; details: weeks 5-8; peptides 75 pmol/kg/min s.c.; Cand 2 mg/kg/day, captopril 3 mg/kg/day
Procedure: as §1, §2
Liver sections used either picrosirius red staining or Masson's trichome staining as described above. Higher concentrations of picrosirius red were often used under polarized light microscopy. The liver was removed and sectioned with half of the liver placed in 10% formalin and the rest frozen in liquid nitrogen before being stored in ˜80° C. freezer for future use. Formalin fixed, paraffin embedded livers were sectioned at thickness of 4 μm and were stained with Masson's trichrome according to standard procedures for analysis of liver fibrosis. […] Sections were re-fixed in Bouin's solution for 1 hour at 56° C. to improve staining quality then rinsed in running tap water for 5-10 minutes to remove yellow colour. Following this, sections were stained in Weigert's iron hematoxylin working solution for 10 minutes. Rinsed in running warm tap water for 10 minutes. Washed in distilled water. Stained in Biebrich scarlet-acid fuchsin solution for 10-15 minutes.
Washed in distilled water. Differentiated in phosphomolybdic-phosphotungstic acid solution for 10-15 minutes or until collagen was no longer red. Sections were transferred directly (without rinse) to aniline blue solution and stained for 5-10 minutes. Rinsed briefly in distilled water and differentiated in 1% acetic acid solution for 2-5 minutes. Washed in distilled water. […] Mounted with DPX mounting medium. Quantification of liver fibrosis was performed using images captured with the Aperio scanner (Monash Histology Platform, Monash University), with ×5 magnification. Each liver section had 5 different fields of view photographed at this magnification. Percentage of interstitial and perivascular collagen was analysed and quantified using ImageJ 1.48 software (Java, NIH), and the percentage from 5 random fields of view were averaged for final percentage of collagen for that particular animal. All analysis of collagen expression was conducted in a blinded fashion.

[3] = biological target: T3, human Angiotensin II Receptor Type 2 …; experiment: competition radioligand binding on HEK-293 cells with AT2R; competitor [125I]-Sar1Ile8Ang II
Procedure: For each experiment, each ligand concentration was tested in duplicate or triplicate, and each experiment was repeated at least 3 separate times.

[4] = PD123319 1 mg/kg/day s.c. with β-Pro7-Ang III or D-Arg2-β-Pro7-Ang III

Row | Molecule | Fold AT2R selectivity (human AT2R) | IC50 [3] [nM] | other results
1 | Arg-Val-Tyr-Ile-His-β-Pro-Ala [βPro-Ala-8-Ang III] | 200 fold | – | –
2 | Arg-Val-Tyr-β-Ile-His-Pro-Trp [βILe-Trp-8-Ang III] | >2500 fold | – | –
3 | β-Arg-Val-Tyr-Ile-His-Pro-Trp [βArg-Trp-8-Ang III] | 1854 fold | – | –
4 | Tetrazole-CONH- Arg-Val-Tyr-Ile-His- β-Pro-Phe [Tet-βPro-Ang III] | >60,000 fold | – | –
5 | Nicotinamido-Arg-Val-Tyr-Ile-His-β-Pro-Trp [Nic-βPro-Trp-8-Ang III] | >15,000 fold | – | –
6 | CC[C@H](C)[C@H](NC(=O)C[C@H](Cc1ccc(O)cc1)NC(=O)[C@@H](NC(=O)[C@@H](N)CCCNC(=N)N)C(C)C)C(=O)N[C@@H](Cc1c[nH]cn1)C(=O)N1CCC[C@H]1C(=O)N[C@@H](Cc1c[nH]c2ccccc12)C(=O)O [βTyr-Trp-8-Ang III, Arg-Val-β-Tyr-Ile-His-Pro-Trp] | – | – | binding at AT1R (displacement of 125I-Sar1-Ile8-AngII), in words (human AT1R): bind poorly; binding at AT2R (displacement of 125I-Sar1-Ile8-AngII), in words (human AT2R; transfected HEK-293 cells): high affinity
7 | CCOc1nc2cccc(C(=O)OC(C)OC(=O)OC3CCCCC3)c2n1Cc1ccc(-c2ccccc2-c2nnn[nH]2)cc1 (centres unmarked) [candesartan cilexetil, reference compound] | – | – | MMP-13 protein expression in heart (Western blot) [1]: Neither captopril nor Cand altered MMP-13 levels; macrophage infiltration/expression in heart (F4/80) [1]: reversed by all agents; expression of P-IκBα (marker for NFκB activation) in heart [1]: reversed only by β-Ile^5-Ang II; cardiac fibrosis (picrosirius red) [1]: did not significantly reduce fibrosis
8 | C[C@H](CS)C(=O)N1CCC[C@H]1C(=O)O [captopril, reference compound] | – | – | MMP-13 protein expression in heart (Western blot) [1]: Neither captopril nor Cand altered MMP-13 levels; macrophage infiltration/expression in heart (F4/80) [1]: reversed by all agents; expression of P-IκBα (marker for NFκB activation) in heart [1]: reversed only by β-Ile^5-Ang II; cardiac fibrosis (picrosirius red) [1]: also reversed fibrosis; liver fibrosis (picrosirius red, polarized light) [2]: similarly inhibited the pro-fibrotic effects of high salt in the liver; liver steatosis (Oil Red O) [2]: significantly reduced excess lipid accumulation
9 | CC[C@H](C)[C@H](NC(=O)[C@H](Cc1ccc(O)cc1)NC(=O)[C@@H](NC(=O)[C@H](N)CCCNC(=N)N)C(C)C)C(=O)N[C@@H](Cc1c[nH]cn1)C(=O)N1CCC[C@H]1C(=O)N[C@@H](Cc1ccccc1)C(=O)O [D-Arg-Ang III, D-Arg-Val-Tyr-Ile-His-Pro-Phe] | 400 fold | – | IC50 (human AT1R; 125I-Sar1-Ile8-AngII): > 10000 nM
10 | Tetrazole-CONH-Arg-Val-Tyr-Ile-His-β-Pro-Trp [Tet-βPro-Trp-8-Ang III] | >275,000 fold | – | –
11 | Cc1cc(Cn2cnc3c2C[C@@H](C(=O)O)N(C(=O)C(c2ccccc2)c2ccccc2)C3)ccc1N(C)C [PD123319, reference compound] | – | – | effect of AT2R antagonist co-treatment on peptide anti-fibrotic effect (cardiac fibrosis, picrosirius red) [1, 4]: attenuated the anti-fibrotic effects of these peptides; effect of AT2R antagonist co-treatment on peptide inhibition of myofibroblast differentiation (α-SMA) [1, 4]: attenuated the inhibitory effects of these peptides
12 | B1 | – | 0.05 | –
13 | B2 | – | 8.1 | –
14 | B3 | – | 20.3 | –
15 | B4 | – | 0.12 | –
16 | B5 | – | 25 | –
17 | B6 | – | 1.82 | –
18 | B7 | – | 6.5 | –
19 | B8 | – | 0.384 | –
20 | B9 | – | 0.34 | –
21 | B10 | – | 12.5 | –
